This is an account of results in US8552058B2, “Application of L-n-butylphthalide in preventing and treating dementia” (CSPC Zhongqi Pharmaceutical Technology (Shijazhuang) Co., …, priority 2004, dated 2013).

The test system of assay [1] is rats with permanent ligation of bilateral common carotid arteries (2-VO model). As to the kind of experiment: Morris' water maze (training latency, platform exploration) in 2-VO hypoperfusion model. The format is in vivo, Wistar rats. The note with it: for effect on detention time in the target quadrant (platform exploration test) / improvement of latency / search strategy in water maze: 2-VO rats; for improvement of latency / search strategy in water maze: vs solvent control; for amelioration of impaired short-term memory and spatial orientation (overall conclusion): 2-VO rats with poor blood supply to brain, L-NBP at 10 mg/kg, 10 mg/kg.

Assay [2] relates to rats with coriamyrtin-induced impaired learning and memory. The note with it: Shuren Yu et al. 1988, cited from earlier work.
In assay [3] the test system is rats with continuous perfusion of Aβ (1-40) into lateral ventricle. Nature of the assay: Morris' water maze and working memory test after continuous i.c.v. perfusion of Aβ (1-40). The class given is in vivo, Wistar rats. The note with it: continuous perfusion of Aβ (1-40) into lateral ventricle, rats, Morris' water maze. How it is done: For Morris' Water Maze Automatic Monitor and experimental protocols, reference may be made to the experiments of learning and memory damage of rats induced by brain hypoperfusion.
Male Wistar rats, which were 10-weeks old and weighed approximately 280 grams, were used. One animal was placed in one cage, while the room temperature was kept at 23° C., with food and water freely accessible. Rats were anaesthetized with sodium pentobarbital (40 mg/kg), and were fixed to stereotaxic apparatus with the position of ventral decubitus. Head skin was cut open, a cannula for Aβ (1-40) perfusion was implanted into right ventricle. According to the stereotaxic profile of rat brain by Paxions and Watson, the implantation site was located 0.3 mm behind and 1.1 mm in the right side of anterior fontanelle, with the depth of 4.0 mm. The cannula was connected to a micro-osmotic pump. The pump was placed on the back of the rat. Aβ (1-40) was dissolved in 35% acetonitrile/0.1% trifluroacetic acid, and was continuously perfused intracerebroventricularly (i.c.v.) at 300 pmol/day, while only the solvent (35% acetonitrile/0.1% trifluroacetic acid) was perfused in the control group.
Rats were randomly classified into […] groups, with 10 animals per group. 1) the sham surgery group: only 35% acetonitrile/0.1% trifluroacetic acid+solvent was perfused into the ventricles of the rats; 2) the model group: Aβ (1-40)+solvent; 3) Aβ (1-40)+L-NBP 10 mg/kg group; 4) Aβ (1-40)+L-NBP 30 mg/kg group. Respective drug or solvent was drenched since the 2nd day after the surgery. The water maze experiment was performed on the 9-13 day after the surgery, while the platform exploration experiment was performed on the 13th day, and the working memory test was performed on the 14-16th days. Animals were decapitated to remove brains for biochemical assay on the 17th day. In all ethological tests, medicines were administered 40 minutes prior to the respective test.
The water maze training experiment was performed on the 9-13th day after icv Aβ (1-40), and the platform exploration experiment was performed on the 13 day after that. The working memory test was performed on the 14-16th day after icv Aβ (1-40) (see the figure above), which investigated the ability of rapid learning and spatial memory in animals when the platform and quadrant were changed, based on the fact that animals had memorized in some extent after training and platform exploration experiment. Experimental procedure was similar to the standard water maze training experiment except that the platform's location was changed every day. The experiment was conducted five times every day, allowing the rats to start swimming from five water-entry sites respectively. […] In the following 4 experiments, the location of the platform was kept constant, yet the water entry sites were within different quadrants. The latency of working memory was calculated by averaging those of the 2-5th experiments, and the ability of working memory of each rat was calculated by averaging the experimental values in 3 days.
All results were expressed in mean±standard error. Comparison of latencies between groups in water maze experiment was performed using two-factor analysis of variance in replicate. Comparison between groups was performed using post hoc LSD or Turkey test. Platform exploration test in water maze experiment, working memory test and biochemical assay were analyzed using one-factor analysis of variance. A difference was considered significant when p<0.05.

“Also recorded” adds a separate entry of the source.

Take `CCCCC1OC(=O)c2ccccc21` (racemic) [DL-NBP, 3-n-butylphthalide]: the “effect on detention time in the target quadrant (platform exploration test)” value in assay [1] (10 mg/kg oral) and in assay [1] (30 mg/kg oral) was “no effect” in each case. For the same compound, the “improvement of latency / search strategy in water maze” value in assay [1] (10 mg/kg oral) and in assay [1] (30 mg/kg oral) was “no significant effect of improvement; also recorded: no obvious improved effect” throughout. In addition, the “amelioration of impaired short-term memory and spatial orientation (overall conclusion)” value in assay [1] (listed as racemic (DL-)) is given as “could not”; in assay [1] (listed as racemic butylphthalide), “neither racemic butylphthalide nor D-butylphthalide were effective”. Also, the “improvement of impaired learning and memory induced by coriamyrtin” value in assay [2] is “could be used to improve the impaired learning and memory”. Besides, the “protection of hippocampal cells” value in assay [2] (coriamyrtin) is on record as “protect hippocampal cells”. Moreover, the “amelioration of impaired short-term memory and stereotaxic memory (overall conclusion)” value in assay [3] is “neither D-NBP nor DL-NBP showed similar effects”.
Turning to `CCCC[C@H]1OC(=O)c2ccccc21` [D-NBP, D-n-butylphthalide], the “improvement of latency / search strategy in water maze” value in assay [1] (30 mg/kg oral) is recorded as “no significant effect of improvement; also recorded: no obvious improved effect”. The figures for the “amelioration of impaired short-term memory and spatial orientation (overall conclusion)” value in assay [1] and in assay [1] (listed as D-butylphthalide) were “could not” and “neither racemic butylphthalide nor D-butylphthalide were effective”, respectively. Moreover, the “amelioration of impaired short-term memory and stereotaxic memory (overall conclusion)” value in assay [3] is “neither D-NBP nor DL-NBP showed similar effects”.
